Laboratory results taken from patent publication US12059472B2 (Bayer Aktiengesellschaft, priority 2016, dated 2024).

Legend:
[1] = test system: NCI-H292: human mucoepidermoid lung carcinoma cells; test: Cytotoxic effect on NCI-H292 cells (MTT/CTG assay); format: cell-based; details: Table 2, active metabolites, MTT
Experimental: (§1) The cells were cultivated by the standard method as stated by the American Tissue Culture Collection (ATCC) or the Leibniz-Institut DSMZ-Deutsche Sammlung von Mikroorganismen und Zellkulturen GmbH (DSMZ) for the cell lines in question.
The cells were then incubated in an incubator at 37° C. and 5% carbon dioxide.
(§2) The cells were then incubated in an incubator at 37° C. and 5% carbon dioxide. After 48 h, the medium was replaced. […] To this end, the MTT reagent was incubated with the cells for 4 h, followed by lysis of the cells overnight by addition of the detergent. The dye formed was detected at 570 nm (Infinite M1000 pro, Tecan).

[2] = test system: SK-HEP-1: human liver cell cancer line; test: Cytotoxic effect on SK-HEP-1 cells (MTT assay); format: cell-based; details: SK-HEP1, Table 2, active metabolites
Experimental: as §1
as §2, with “Tecan). The measured data were used to calculate the IC50 of the growth inhibition using the DRC (dose response curve). The proliferation of cells which were not treated with test substance but were otherwise identically treated was defined as the 100% figure.” for “Tecan).”

[3] = test system: KPL4: human breast cancer cell line; test: Cytotoxic effect on KPL4 cells (MTT assay); format: cell-based; details: Table 2, active metabolites
Experimental: The analysis of the cytotoxic effects of the ADCs was carried out with various cell lines: • NCI-H292: human mucoepidermoid lung carcinoma cells, ATCC-CRL-1848, standard medium: RPMI 1640 (Biochrom; #FG1215, stab. glutamine)+10% FCS (Sigma; #F2442), TWEAKR-positive; EGFR-positive. • BxPC3: human pancreas carcinoma cells, ATCC-CRL-1687, standard medium: RPMI 1640 (Biochrom; #FG1215, stab. glutamine)+10% FCS (Sigma; #F2442), TWEAKR-positive. • LoVo human colorectal cancer cells, ATCC No. CCL-229, cultivation for MTT assay: standard medium: Kaighn's+L-glutamine (Invitrogen 21127)+10% heat inactivated FCS (from Gibco, No. 10500-064). Cultivation for CTG assay: RPMI 1640 (Biochrom; #FG1215, stab. glutamine)+10% FCS (Sigma #F2442). […]
The cells were cultivated by the standard method, with the growth media specified under C-1a. […] After 96 h, the cell proliferation was detected using the MTT assay (ATCC, Manassas, Virginia, USA, catalogue No. 30-1010K). […] The dye formed was detected at 570 nm (Infinite M1000 pro, Tecan). The measured data were used to calculate the IC50 of the growth inhibition using the DRC (dose response curve). […]

[4] = Caco-2 flux assay for cell permeability; format: in vitro ADME; details: human; Caco-2, basal to apical, 2 hours
Experimental: The cell permeability of a substance can be investigated by means of in vitro testing in a flux assay using Caco-2 cells [M. D. Troutman and D. R. Thakker, Pharm. […] For this purpose, the cells were cultured for 15-16 days on 24-well filter plates. For the determination of permeation, the respective test substance was applied in a HEPES buffer to the cells either apically (A) or basally (B) and incubated for 2 hours. After 0 hours and after 2 hours, samples were taken from the cis and trans compartments. The samples were separated by HPLC (Agilent 1200, Böblingen, Germany) using reverse phase columns. The HPLC system was coupled via a Turbo Ion Spray Interface to a Triple Quadropol mass spectrometer API 4000 (AB SCIEX Deutschland GmbH, Darmstadt, Germany).
Of critical importance for toxophors which are released intracellularly is the permeability from B to A [Papp (B-A)] and the ratio of Papp (B-A) to Papp (A-B) (efflux ratio): the lower this permeability, the slower the active and passive transport processes of the substance through the monolayer of Caco-2 cells.

CC(C)(C)[C@H](c1cc(-c2cc(F)ccc2F)cn1Cc1ccccc1)N(CC[C@H](N)C(=O)NCCC(=O)N[C@H](CCC(=O)O)C(=O)O)C(=O)CO [Example M3, N-{(2S)-2-Amino-4-[{(1R)-1-[1-benzyl-4-(2,5-difluorophenyl)-1H-pyrrol-2-yl]-2,2-dimethylpropyl}(glycoloyl)amino]butanoyl}-beta-alanyl-D-glutamic acid]
IC50 [1]: 174 nM
IC50 [2]: 14.6 nM
IC50 [3]: 173 nM
Papp B→A at 2 h [4]: 0.27 ×10⁻⁶ cm/s
